Our source for the Ki values is ChEMBL document CHEMBL5584218, “Design and synthesis of unique morphinan-type molecules: Their application to the search for the unexplored binding domain between opioid receptors and morphinan ligands” (Bioorg Med Chem Lett, 2024).

Molecules are shown by their SMILES.

Holding throughout (format): cell membranes
One experiment addresses Mu-type opioid receptor (Homo sapiens, UniProt P35372). Nature of the experiment: Displacement of [3H]-DAMGO from human MOR extracted from HEK293 cell membrane assessed as inhibition constant.
In experiment [1] the target is Delta-type opioid receptor (Homo sapiens, UniProt P41143). Nature of the experiment: Displacement of [3H]DPDPE from human DOR extracted from HEK293 cell membrane assessed as inhibition constant. In general terms: In a radioligand displacement assay an active substance lowers the binding of a labelled ligand.
Chain of Delta-type opioid receptor (P41143 whole entry): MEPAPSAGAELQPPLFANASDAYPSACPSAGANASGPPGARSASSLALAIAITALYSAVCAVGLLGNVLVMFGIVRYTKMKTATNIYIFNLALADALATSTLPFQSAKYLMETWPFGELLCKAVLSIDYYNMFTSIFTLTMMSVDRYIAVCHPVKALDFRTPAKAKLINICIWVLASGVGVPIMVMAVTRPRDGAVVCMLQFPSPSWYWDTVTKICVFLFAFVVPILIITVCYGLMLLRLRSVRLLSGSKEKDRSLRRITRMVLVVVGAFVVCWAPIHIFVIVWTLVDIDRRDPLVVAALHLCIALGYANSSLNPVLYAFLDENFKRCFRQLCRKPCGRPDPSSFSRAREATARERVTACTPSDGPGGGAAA
The target in experiment [2] is Kappa-type opioid receptor (Homo sapiens, UniProt P41145). Nature of the experiment: Displacement of [3H]U-69593 from human KOR extracted from HEK293 cell membrane assessed as inhibition constant.
Chain of Kappa-type opioid receptor (P41145 whole entry): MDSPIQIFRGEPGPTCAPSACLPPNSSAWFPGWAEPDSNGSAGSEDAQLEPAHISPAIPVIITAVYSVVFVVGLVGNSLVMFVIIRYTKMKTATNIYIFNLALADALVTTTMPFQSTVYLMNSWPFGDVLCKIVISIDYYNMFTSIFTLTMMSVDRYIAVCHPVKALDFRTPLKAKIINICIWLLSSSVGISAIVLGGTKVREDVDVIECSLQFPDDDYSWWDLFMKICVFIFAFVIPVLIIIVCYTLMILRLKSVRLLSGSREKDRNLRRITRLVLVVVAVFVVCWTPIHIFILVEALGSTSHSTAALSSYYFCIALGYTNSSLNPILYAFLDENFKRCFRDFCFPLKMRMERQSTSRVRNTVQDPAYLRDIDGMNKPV

The term Ki denotes the equilibrium dissociation constant of an inhibitor or competing ligand from its target.

Chain of Mu-type opioid receptor (P35372 whole entry): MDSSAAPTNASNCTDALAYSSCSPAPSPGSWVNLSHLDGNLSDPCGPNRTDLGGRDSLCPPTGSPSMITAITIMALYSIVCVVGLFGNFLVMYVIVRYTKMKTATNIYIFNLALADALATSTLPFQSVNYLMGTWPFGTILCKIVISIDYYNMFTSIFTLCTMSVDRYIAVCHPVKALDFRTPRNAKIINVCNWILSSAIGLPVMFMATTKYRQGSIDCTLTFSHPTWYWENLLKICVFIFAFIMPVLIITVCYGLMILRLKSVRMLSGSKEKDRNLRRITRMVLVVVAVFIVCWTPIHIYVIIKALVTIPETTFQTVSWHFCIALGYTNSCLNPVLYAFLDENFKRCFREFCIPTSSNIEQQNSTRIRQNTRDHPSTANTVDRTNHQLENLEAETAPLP

For `CC(=O)C(C(C)=O)=C1N(CC2CC2)C2Cc3ccc(O)c4c3[C@]35CCN1[C@]23CCC(=O)C5O4` (some centres undefined), the results for the Ki (at Mu-type opioid receptor; in experiment [1]; in experiment [2]) were 690 nM, 1300 nM and 1400 nM, respectively.
`O=C1CC[C@@]23C4Cc5ccc(O)c6c5[C@@]2(CCN3CN4CCc2ccccc2)C1O6` (some centres undefined): the Ki at Mu-type opioid receptor was found to be 22 nM; in experiment [1], 25 nM; in experiment [2], 5.2 nM.
The matching figures for `N[C@@]12CCC(=O)C3Oc4c(O)ccc5c4[C@@]31CCN(CC1CC1)C2C5` (some centres undefined): 0.82 nM, 19 nM and 1.8 nM.
Turning to `C[C@@H](O)C[C@H]1NC2Cc3ccc(O)c4c3[C@]35CCN1[C@]23CCC(=O)C5O4` (some centres undefined), the Ki stood at 69 nM at Mu-type opioid receptor, 620 nM in experiment [1] and 390 nM in experiment [2].
In the same order, the values of `CC(=O)/C=C1/NC2Cc3ccc(O)c4c3[C@]35CCN1[C@]23CCC(=O)C5O4` (some centres undefined) are 380 nM, over 10000 nM and 310 nM.
The matching figures for `CN1CN2CC[C@]34c5c6ccc(O)c5OC3C(=O)CC[C@]24C1C6` (some centres undefined): 150 nM, 160 nM and 310 nM.
The matching figures for `C[C@H](O)C[C@H]1NC2Cc3ccc(O)c4c3[C@]35CCN1[C@]23CCC(=O)C5O4` (some centres undefined): 57 nM, 320 nM and 120 nM.
As to `O=C1CC[C@]23C4[C@@H](CN(CC5CC5)C[N@@]42)[C@]32c3cccc(O)c3OC12` (some centres undefined), the Ki on Mu-type opioid receptor turned out to be 20 nM; in experiment [1], 64 nM; in experiment [2], 21 nM.
